Assay results: article PMC3214044, “In Vitro Recombination of Non-Homologous Genes Can Result in Gene Fusions that Confer a Switching Phenotype to Cells” (PLoS ONE, 2011)

What was measured:
[1] = test system: T1, Ph8; conditions: read-out: Km (μM) / - Maltose; 10 mM sodium phosphate pH 7.0, 37°C, without maltose; BLA domain site
T1 construct: gene malE

[2] = test system: T2, c4; conditions: read-out: Km (μM) / - Maltose; 10 mM sodium phosphate pH 7.0, 37°C, without maltose; BLA domain site; substrate range 100-400 µM, above the Km
T2 construct: gene malE

Compound CC1(C)S[C@@H]2[C@H](NC(=O)[C@H](N)c3ccccc3)C(=O)N2[C@H]1C(=O)O [ampicillin] has a Km [1] of 730 ± 120 µM and a Km [2] of 73 ± 4 µM.
